In US20190255091A1, “RNAi AGENTS FOR [sequence] B VIRUS INFECTION” (priority 2016, published 2019):

Test system: Hepatitis B Virus (HBV)
Test: Serum HBV DNA levels in pHBV model mice (qPCR)
Type: in vivo
Conditions: single s.c. injection day 1, Example 7
From the text: Six to eight-week-old female NOD.CB17-Prkdscid/NcrCrl (NOD-SCID) mice were transiently transfected in vivo with MC-HBV1.3 by hydrodynamic tail vein injection (Yang P L et al. “Hydrodynamic injection of viral DNA: a mouse model of acute hepatitis B virus infection,” PNAS USA 2002 Vol. 99: p. 13825-13830), administered 30 to 45 days prior to administration of an HBV RNAi agent or control. MC-HBV1.3 is a plasmid-derived minicircle that contains the same terminally redundant human hepatitis B virus sequence HBV1.3 as in plasmid pHBV1.3 and in the HBV1.3.32 transgenic mice (GenBank accession #V01460) (Guidotti L G et al., “High-level hepatitis B virus replication in transgenic mice,” J Virol 1995 Vol. 69, p 6158-6169.). 5 or 10 μg MC-HBV1.3 in Ringer's Solution in a total volume of 10% of the animal's body weight was injected into mice via tail vein to create pHBV model of chronic HBV infection. The solution was injected through a 27-gauge needle in 5-7 seconds as previously described (Zhang G et al., “High levels of foreign gene expression in hepatocytes after tail vein injection of naked plasmid DNA.” Human Gene Therapy 1999 Vol. 10, p 1735-1737.). At pre-dose (either day 1 pre-dose, day −1, or day −2), Hepatitis B surface antigen (HBsAg) HBsAg expression levels in serum were measured by ELISA and the mice were grouped according to average HBsAg expression levels.
HBV expression levels were normalized to pre-administration expression levels and to control mice injected with phosphate buffered saline (“PBS”).
Equal volumes of serum from mice in a group or subgroup were pooled to a final volume of 100 μL. DNA was isolated from serum samples using the QIAamp MinElute Virus Spin Kit (Qiagen, Valencia, Calif.) following the manufacturer's instructions. Sterile 0.9% saline was added to each sample to a final volume of 200 μL. Serum samples were added to tubes containing buffer and protease. Carrier RNA was added to aid in the isolation of small amounts of DNA. […] After incubating 15 min at 56° C., nucleic acids were precipitated from the lysates with ethanol and the entire solution applied to a column. After washing, the samples were eluted into a volume of 50 μL Buffer AVE.
The number of copies of HBV genomes in DNA isolated from the pHBV mouse model serum was determined by qPCR. Plasmid pSEAP-HBV353-777, encoding a short segment of the HBV genome within the S gene (bases 353-777 of GenBank accession #V01460), was used to create a six log standard curve. Samples with recovery of DNA below 2 standard deviations from the average, based on detection of pHCR/UbC-SEAP were omitted. TaqMan chemistry-based primers and probes with fluor/ZEN/IBFQ are utilized.
qPCR assays were performed on a 7500 Fast or StepOne Plus Real-Time PCR system (Life Technologies). For evaluation of HBV DNA in serum, DNA was isolated from singlet or duplicate purification steps from pooled group serum samples. Quantitations of HBV DNA and recovery control plasmid were determined by qPCR reactions performed in triplicate. The probes to quantitate HBV and pHCR/UbC-SEAP were included in each reaction.

Substance | Average Serum HBV DNA levels normalized to pre-treatment and PBS control (Day 8, 1.0 mg/kg) | Average Serum HBV DNA levels normalized to pre-treatment and PBS control (Day 8, 2.0 mg/kg) | Average Serum HBV DNA levels normalized to pre-treatment and PBS control (Day 15, 1.0 mg/kg) | Average Serum HBV DNA levels normalized to pre-treatment and PBS control (Day 15, 2.0 mg/kg) | Average Serum HBV DNA levels normalized to pre-treatment and PBS control (Day 22, 1.0 mg/kg) | Average Serum HBV DNA levels normalized to pre-treatment and PBS control (Day 22, 2.0 mg/kg) | Average Serum HBV DNA levels normalized to pre-treatment and PBS control (Day 29, 1.0 mg/kg) | Average Serum HBV DNA levels normalized to pre-treatment and PBS control (Day 29, 2.0 mg/kg) | Average Serum HBV DNA levels normalized to pre-treatment and PBS control (Day 36, 1.0 mg/kg) | Average Serum HBV DNA levels normalized to pre-treatment and PBS control (Day 36, 2.0 mg/kg) | Average Serum HBV DNA levels normalized to pre-treatment and PBS control (Day 8, 4.0 mg/kg) | Average Serum HBV DNA levels normalized to pre-treatment and PBS control (Day 15, 4.0 mg/kg) | Average Serum HBV DNA levels normalized to pre-treatment and PBS control (Day 22, 4.0 mg/kg) | Average Serum HBV DNA levels normalized to pre-treatment and PBS control (Day 29, 4.0 mg/kg) | Average Serum HBV DNA levels normalized to pre-treatment and PBS control (Day 36, 4.0 mg/kg)
AD04982: HBV RNAi agent duplex AM06464-AS/AM06150-SS (antisense UACCAAUUUAUGCCUACAGCC; sense GGCUGUAGGCAUAAAUUGGUA; chemistry not fully specified) | 0.358 ± 0.207 | 0.516 ± 0.163 | 0.428 ± 0.073 | 0.523 ± 0.264 | 0.433 ± 0.220 | 0.244 ± 0.123 | 0.474 ± 0.090 | 0.241 ± 0.085 | 0.509 ± 0.163 | 0.543 ± 0.079 |  |  |  |  | 
AD04776: HBV RNAi agent duplex AM05850-AS/AM06150-SS (antisense UACCAAUUUAUGCCUACAGCC; sense GGCUGUAGGCAUAAAUUGGUA; chemistry not fully specified) | 0.601 ± 0.388 | 0.363 ± 0.128 | 0.319 ± 0.125 | 0.374 ± 0.197 | 0.279 ± 0.138 | 0.275 ± 0.146 | 0.506 ± 0.525 | 0.385 ± 0.141 | 0.444 ± 0.407 | 0.721 ± 0.043 | 0.224 ± 0.150 | 0.263 ± 0.185 | 0.335 ± 0.204 | 0.449 ± 0.108 | 0.603 ± 0.068
